In publication PMC4894032 (European journal of medicinal chemistry, 2016):

Test system: carrageenan-induced mouse paw edema
Test: Carrageenan-induced paw edema
Assay type: in vivo, mouse (female C57BL/6J)
Settings: carrageenan-induced mouse paw inflammation; IIn treated

CN(Cc1ccccn1)Cc1cccc(CN(C)Cc2ccccn2)n1 [IIn, N,N′-(Pyridine-2,6-diylbis(methylene))bis(N-methyl-1-(pyridin-2-yl)methanamine)]
Histological analysis of paw tissue (H&E): significantly attenuated the mouse paw inflammation and damage
